Experimental data: ChEMBL document CHEMBL5291721, “A preclinical secondary pharmacology resource illuminates target-adverse drug reaction associations of marketed drugs” (Nat Commun, 2023)
Values joined by “and” are separate entries in the source; they are usually repeats but may differ in a detail not shown here. Equal values may be shown once.

What was measured:
[1] = target: Adenosine receptor A2a (Homo sapiens, UniProt P29274)
[2] = target: Beta-2 adrenergic receptor (Homo sapiens, UniProt P07550)
[3] = target: Vasopressin V1a receptor (Homo sapiens, UniProt P37288)
[4] = target: T1, B2 bradykinin receptor (Homo sapiens, UniProt P30411)
T1 sequence (P30411 whole entry): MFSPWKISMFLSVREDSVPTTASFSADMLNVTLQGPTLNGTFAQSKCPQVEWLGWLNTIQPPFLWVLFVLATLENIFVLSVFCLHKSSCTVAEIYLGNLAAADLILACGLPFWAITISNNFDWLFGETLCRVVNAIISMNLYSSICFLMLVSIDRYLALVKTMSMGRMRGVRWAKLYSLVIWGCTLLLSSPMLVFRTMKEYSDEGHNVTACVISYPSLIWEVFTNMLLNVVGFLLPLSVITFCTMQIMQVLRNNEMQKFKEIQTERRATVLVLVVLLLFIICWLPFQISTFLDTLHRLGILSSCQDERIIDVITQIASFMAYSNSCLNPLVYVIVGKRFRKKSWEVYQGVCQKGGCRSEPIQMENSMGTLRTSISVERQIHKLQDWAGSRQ

[5] = target: T2, Muscarinic acetylcholine receptor M1 (Homo sapiens, UniProt P11229); type: functional
T2 sequence (P11229 whole entry): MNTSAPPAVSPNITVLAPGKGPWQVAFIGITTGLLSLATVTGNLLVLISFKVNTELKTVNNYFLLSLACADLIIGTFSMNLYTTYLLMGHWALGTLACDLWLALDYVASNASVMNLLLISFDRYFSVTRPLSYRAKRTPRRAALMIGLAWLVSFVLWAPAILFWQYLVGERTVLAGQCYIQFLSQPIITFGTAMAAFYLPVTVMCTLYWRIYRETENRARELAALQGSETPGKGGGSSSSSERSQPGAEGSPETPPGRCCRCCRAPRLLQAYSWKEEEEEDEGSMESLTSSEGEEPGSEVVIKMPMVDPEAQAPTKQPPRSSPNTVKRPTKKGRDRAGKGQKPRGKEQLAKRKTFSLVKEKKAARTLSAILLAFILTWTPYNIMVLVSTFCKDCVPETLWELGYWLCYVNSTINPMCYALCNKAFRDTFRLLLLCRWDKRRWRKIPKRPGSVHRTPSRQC

[6] = target: T3, Muscarinic acetylcholine receptor M2 (Homo sapiens, UniProt P08172); type: functional, cell-based
T3 sequence (P08172 whole entry): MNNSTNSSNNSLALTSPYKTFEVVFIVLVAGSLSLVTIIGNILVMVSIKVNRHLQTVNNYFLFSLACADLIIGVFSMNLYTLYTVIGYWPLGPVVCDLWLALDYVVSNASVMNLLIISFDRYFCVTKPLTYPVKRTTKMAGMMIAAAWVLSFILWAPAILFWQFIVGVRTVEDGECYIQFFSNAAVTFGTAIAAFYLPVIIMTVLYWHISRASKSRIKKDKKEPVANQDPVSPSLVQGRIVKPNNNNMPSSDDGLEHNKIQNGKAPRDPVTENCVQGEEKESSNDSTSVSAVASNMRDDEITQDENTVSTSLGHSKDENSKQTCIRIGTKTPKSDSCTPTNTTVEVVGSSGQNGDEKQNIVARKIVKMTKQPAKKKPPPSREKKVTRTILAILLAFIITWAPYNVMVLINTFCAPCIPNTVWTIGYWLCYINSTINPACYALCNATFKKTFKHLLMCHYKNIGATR

[7] = target: Cannabinoid receptor 1 (Homo sapiens, UniProt P21554)
[8] = target: 5-hydroxytryptamine receptor 2A (Homo sapiens, UniProt P28223); type: functional, cell-based
[9] = target: Melanocortin receptor 4 (Homo sapiens, UniProt P32245)
[10] = target: Mu-type opioid receptor (Homo sapiens, UniProt P35372); assay: biochemical; type: functional
[11] = target: 3',5'-cyclic-AMP phosphodiesterase 4D (Homo sapiens, UniProt Q08499); type: functional
[12] = target: T4, 5-hydroxytryptamine receptor 1A (Homo sapiens, UniProt P08908); type: functional, cell-based
T4 sequence (P08908 whole entry): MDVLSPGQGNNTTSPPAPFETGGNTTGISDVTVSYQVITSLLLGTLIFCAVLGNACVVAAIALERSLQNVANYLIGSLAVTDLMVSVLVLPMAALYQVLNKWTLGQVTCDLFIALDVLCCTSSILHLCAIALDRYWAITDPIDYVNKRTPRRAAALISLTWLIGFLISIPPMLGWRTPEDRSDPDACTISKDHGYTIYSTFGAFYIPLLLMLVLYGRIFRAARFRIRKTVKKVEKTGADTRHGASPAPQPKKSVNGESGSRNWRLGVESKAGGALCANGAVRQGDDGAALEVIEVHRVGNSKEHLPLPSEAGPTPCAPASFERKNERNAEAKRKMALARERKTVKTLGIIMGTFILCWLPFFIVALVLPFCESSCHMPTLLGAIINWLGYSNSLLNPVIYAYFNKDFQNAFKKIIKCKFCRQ
Further: assay procedure not described here.

5-hydroxytryptamine receptor 2A, sequence (P28223 whole entry): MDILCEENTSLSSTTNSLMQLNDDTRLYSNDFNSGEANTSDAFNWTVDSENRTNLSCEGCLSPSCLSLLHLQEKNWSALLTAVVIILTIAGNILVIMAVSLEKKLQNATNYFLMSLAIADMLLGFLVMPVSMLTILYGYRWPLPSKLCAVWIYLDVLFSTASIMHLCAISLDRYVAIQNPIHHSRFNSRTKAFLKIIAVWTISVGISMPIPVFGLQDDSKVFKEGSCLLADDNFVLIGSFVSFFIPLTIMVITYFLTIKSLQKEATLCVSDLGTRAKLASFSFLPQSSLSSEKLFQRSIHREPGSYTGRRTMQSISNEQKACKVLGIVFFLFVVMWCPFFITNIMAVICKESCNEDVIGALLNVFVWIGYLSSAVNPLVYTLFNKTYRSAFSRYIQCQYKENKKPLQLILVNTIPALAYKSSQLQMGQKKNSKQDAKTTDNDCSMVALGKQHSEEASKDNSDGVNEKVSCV
Vasopressin V1a receptor, sequence (P37288 whole entry): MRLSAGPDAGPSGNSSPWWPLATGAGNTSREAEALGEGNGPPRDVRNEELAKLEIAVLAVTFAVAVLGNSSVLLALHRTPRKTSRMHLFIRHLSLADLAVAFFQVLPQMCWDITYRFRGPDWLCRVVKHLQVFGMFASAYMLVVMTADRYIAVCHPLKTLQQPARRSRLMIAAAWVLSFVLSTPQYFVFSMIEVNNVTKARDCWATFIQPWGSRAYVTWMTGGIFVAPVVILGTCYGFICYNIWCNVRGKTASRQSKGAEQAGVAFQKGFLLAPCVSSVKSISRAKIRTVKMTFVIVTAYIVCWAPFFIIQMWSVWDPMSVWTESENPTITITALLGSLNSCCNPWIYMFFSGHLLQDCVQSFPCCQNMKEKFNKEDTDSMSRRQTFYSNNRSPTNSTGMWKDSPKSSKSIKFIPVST
Melanocortin receptor 4, sequence (P32245 whole entry): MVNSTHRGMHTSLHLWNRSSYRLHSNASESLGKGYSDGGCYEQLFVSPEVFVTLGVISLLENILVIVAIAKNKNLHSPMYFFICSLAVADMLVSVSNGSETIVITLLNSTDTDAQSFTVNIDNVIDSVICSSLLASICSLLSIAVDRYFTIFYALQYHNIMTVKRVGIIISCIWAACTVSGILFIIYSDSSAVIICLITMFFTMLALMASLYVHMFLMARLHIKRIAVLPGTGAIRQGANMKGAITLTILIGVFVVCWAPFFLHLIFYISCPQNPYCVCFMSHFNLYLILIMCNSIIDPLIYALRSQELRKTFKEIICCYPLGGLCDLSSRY
Cannabinoid receptor 1, sequence (P21554 whole entry): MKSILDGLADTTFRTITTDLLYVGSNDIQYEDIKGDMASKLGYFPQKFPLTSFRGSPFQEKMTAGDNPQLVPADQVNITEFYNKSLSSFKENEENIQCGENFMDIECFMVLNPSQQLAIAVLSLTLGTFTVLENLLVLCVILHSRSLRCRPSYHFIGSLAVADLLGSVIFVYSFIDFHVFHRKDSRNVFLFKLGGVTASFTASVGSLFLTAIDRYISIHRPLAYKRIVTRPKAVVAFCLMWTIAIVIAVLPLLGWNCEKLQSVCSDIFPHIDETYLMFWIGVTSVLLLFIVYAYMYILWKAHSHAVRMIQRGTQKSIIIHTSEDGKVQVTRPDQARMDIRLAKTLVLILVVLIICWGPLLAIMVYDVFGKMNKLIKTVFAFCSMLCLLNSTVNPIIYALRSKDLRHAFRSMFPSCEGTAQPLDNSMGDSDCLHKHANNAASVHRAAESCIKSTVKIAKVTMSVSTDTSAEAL
Adenosine receptor A2a, sequence (P29274 whole entry): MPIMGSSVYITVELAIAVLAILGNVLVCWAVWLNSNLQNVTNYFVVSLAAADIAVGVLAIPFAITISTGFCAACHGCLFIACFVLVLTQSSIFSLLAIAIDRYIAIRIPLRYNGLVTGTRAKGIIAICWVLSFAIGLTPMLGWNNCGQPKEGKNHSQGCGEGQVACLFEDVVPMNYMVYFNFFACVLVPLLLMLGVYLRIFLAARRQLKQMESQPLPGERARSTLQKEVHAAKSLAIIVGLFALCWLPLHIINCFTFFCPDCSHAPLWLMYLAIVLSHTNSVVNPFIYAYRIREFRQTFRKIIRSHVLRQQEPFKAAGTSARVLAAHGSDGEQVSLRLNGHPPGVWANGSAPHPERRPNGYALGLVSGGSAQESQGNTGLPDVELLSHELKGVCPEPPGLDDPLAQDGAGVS
3',5'-cyclic-AMP phosphodiesterase 4D, sequence (Q08499 whole entry): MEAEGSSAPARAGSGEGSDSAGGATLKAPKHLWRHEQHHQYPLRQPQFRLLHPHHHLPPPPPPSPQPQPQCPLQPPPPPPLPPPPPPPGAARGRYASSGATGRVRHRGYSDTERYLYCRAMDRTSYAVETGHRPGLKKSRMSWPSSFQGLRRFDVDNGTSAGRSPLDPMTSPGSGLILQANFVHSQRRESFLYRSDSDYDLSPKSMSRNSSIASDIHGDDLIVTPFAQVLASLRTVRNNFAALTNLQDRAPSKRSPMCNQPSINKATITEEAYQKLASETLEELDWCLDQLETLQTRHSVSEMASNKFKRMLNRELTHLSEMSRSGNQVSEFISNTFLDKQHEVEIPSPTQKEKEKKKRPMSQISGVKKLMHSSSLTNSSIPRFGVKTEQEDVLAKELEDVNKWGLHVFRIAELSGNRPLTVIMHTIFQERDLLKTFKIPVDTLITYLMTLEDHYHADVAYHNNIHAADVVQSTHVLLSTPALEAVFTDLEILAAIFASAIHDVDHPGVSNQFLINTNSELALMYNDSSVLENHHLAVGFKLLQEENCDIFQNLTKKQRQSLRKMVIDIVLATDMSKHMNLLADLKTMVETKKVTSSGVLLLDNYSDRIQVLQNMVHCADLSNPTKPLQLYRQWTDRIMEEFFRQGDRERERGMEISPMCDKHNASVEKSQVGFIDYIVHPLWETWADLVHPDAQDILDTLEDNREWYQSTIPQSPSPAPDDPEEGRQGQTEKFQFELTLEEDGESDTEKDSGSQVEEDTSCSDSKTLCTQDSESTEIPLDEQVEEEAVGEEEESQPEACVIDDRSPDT
Beta-2 adrenergic receptor, sequence (P07550 whole entry): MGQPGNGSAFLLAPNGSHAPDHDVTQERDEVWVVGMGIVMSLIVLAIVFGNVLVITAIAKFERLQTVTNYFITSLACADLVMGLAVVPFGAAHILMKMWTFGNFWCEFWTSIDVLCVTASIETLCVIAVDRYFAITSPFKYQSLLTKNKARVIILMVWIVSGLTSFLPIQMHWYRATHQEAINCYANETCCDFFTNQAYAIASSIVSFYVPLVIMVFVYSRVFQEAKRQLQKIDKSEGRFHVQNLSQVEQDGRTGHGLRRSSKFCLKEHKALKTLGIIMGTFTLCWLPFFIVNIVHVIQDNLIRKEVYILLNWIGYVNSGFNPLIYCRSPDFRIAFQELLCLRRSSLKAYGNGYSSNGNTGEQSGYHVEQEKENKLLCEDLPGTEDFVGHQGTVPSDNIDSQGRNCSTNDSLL
Mu-type opioid receptor, sequence (P35372 whole entry): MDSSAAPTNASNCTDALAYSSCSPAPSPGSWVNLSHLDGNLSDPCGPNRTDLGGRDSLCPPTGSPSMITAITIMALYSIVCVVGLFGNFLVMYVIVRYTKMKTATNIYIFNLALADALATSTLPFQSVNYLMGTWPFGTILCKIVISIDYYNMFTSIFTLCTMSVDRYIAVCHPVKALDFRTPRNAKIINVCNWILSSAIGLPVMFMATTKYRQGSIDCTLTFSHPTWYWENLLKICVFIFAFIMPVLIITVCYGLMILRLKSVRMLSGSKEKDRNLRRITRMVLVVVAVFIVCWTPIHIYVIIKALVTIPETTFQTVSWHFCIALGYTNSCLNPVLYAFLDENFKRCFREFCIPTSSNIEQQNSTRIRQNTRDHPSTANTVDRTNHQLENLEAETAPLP

Row | SMILES | AC50 [1] [µM] | AC50 [2] | AC50 [3] [µM] | AC50 [4] [µM] | AC50 [5] [µM] | AC50 [6] [µM] | AC50 [7] [µM] | AC50 [8] [µM] | AC50 [9] [µM] | AC50 [10] [µM] | AC50 [11] [µM] | AC50 [12] [µM]
1 | CCN(CC)C(=O)C1CN2CCc3cc(OC)c(OC)cc3C2CC1OC(C)=O (centres undefined) [BENZQUINAMIDE] | > 30 | > 10 µM | > 30 | > 30 | > 30 | > 30 | > 10 | 1.57 | > 10 | > 30 | > 30 | –
2 | COC(=O)N[C@@H](C)CNc1nccc(-c2cn(C(C)C)nc2-c2cc(Cl)cc(NS(C)(=O)=O)c2F)n1 [ENCORAFENIB] | > 30 | > 30 µM | > 30 | > 30 | > 30 | > 30 | > 30 | > 30 | > 30 | > 30 | 4.4 | > 30
3 | Nc1nc(F)nc2c1ncn2[C@@H]1O[C@H](COP(=O)(O)O)[C@@H](O)[C@@H]1O [FLUDARABINE PHOSPHATE] | > 30 | > 30 µM | > 30 | > 30 | > 30 | > 30 | > 30 | > 30 | > 30 | > 30 | > 30 | > 30
4 | O=C(O)c1ccccc1Nc1cccc(C(F)(F)F)c1 [FLUFENAMIC ACID] | > 30 | > 10 µM | > 30 | > 30 | 0.54 | > 10 | > 10 | > 30 | > 30 | > 30 | > 30 | 15
5 | CC(=O)O[C@H]1C[C@@H]2CC[C@@H]3[C@H](CC[C@@]4(C)[C@H]3C[C@H]([N+]3(C)CCCCC3)[C@@H]4OC(C)=O)[C@@]2(C)C[C@@H]1[N+]1(C)CCCCC1 [PANCURONIUM] | > 10 | > 10 µM | > 10 | > 10 | > 10 | > 10 | > 10 | > 10 | > 10 | > 30 | > 30 | > 10
6 | CC1(C)C(C=C(Cl)Cl)C1C(=O)OCc1cccc(Oc2ccccc2)c1 (centres undefined) [PERMETHRIN] | > 10 | > 10 µM | > 10 | > 10 | > 10 | > 10 | 18.2 | > 10 | > 10 | – | > 30 | > 10
7 | NC(=O)CCC/N=C(\c1ccc(Cl)cc1)c1cc(F)ccc1O [PROGABIDE] | > 10 | > 10 µM | > 10 | > 10 | > 10 | > 10 | > 10 | > 10 | > 10 | – | > 10 | > 10
8 | CC(NCCc1ccc(O)cc1)C(O)c1ccc(O)cc1 (centres undefined) [RITODRINE] | > 30 | 4.71 µM and 4.14 µM | > 30 | > 30 | > 30 | > 30 | > 30 | > 30 | > 10 | 8.1 | > 30 | > 10
9 | N#C[C@@H]1CCCN1C(=O)CNC12CC3CC(CC(O)(C3)C1)C2 [VILDAGLIPTIN] | > 30 | > 10 µM | > 30 | > 30 | > 30 | > 30 | > 30 | > 30 | > 30 | > 30 | > 30 | –
